In US10786429B2, “Preservative removal from eye drops” (University of Florida Research Foundation, Inc., priority 2016, dated 2020):
Counter-ions that a name gives are not always drawn. Marks after values point to notes of the source that are not given here.

Experiments:
Format in all cases: physicochemical
[1] = Partition coefficient in macroporous pHEMA hydrogel; conditions: for Partition coefficient: 250 mg gel in 12 mL PBS solution, 15 days, mean ± SD, n=3
Procedure: As indicated above, the absorption percentage of hydrophilic drug is small, whereas a significant amount of hydrophobic drug is uptake by the macroporous pHEMA gel. The high affinity of hydrophobic drug to the gel can be determined by measuring the partition coefficient of the drug in the gel. To measure the partition coefficient, a piece of macroporous pHEMA gel of 250 mg was soaked in 12 mL of drug or BAK solution. After 15 days of soaking, the concentration of the drug or BAK solution was measured by using UV-Vis spectrophotometry. The drug or BAK concentration after soaking indicated the amount of drug or BAK in reference to the initial concentration is that absorbed into the gel. The partition coefficient of timolol and dorzolamide in macroporous pHEMA gel is roughly 15 times smaller than that of BAK, which is excellent separation efficiency. In contrast, the partition coefficients of latanoprost and BAK are pretty high and the separation efficiency of the gel for this mixture is poor.

[2] = Partition and adsorption into pHEMA matrix (general statement)
[3] = Langmuir adsorption isotherm fit of equilibrium interfacial surface tension of BAK solutions; conditions: Langmuir model fit
Procedure: An eye drop bottle's plug (tip) was packed with 0.1 g of p-HEMA particles for Timolol Maleate commercial formulation (Sandoz Inc.) and 0.1 g of p-HEMA/MAA particles for Bimatoprost commercial formation (Allegran Inc.). Approximately 0.5 mL of commercial formulation was dosed from the eye drop bottle for each measurement with 0.5 mL of a filtered formulation withdrawn by a standard 3 mL syringe for pendant drop measurements. A drop shape analysis was conducted by the Tensiometer to extract surface tension data of the filtered formulation. A calibration curve with equilibrium interfacial surface tension data as a function of BAK concentration was used to estimate concentrations and fractional BAK removal from the filtered eye drop formulation. Periodic surface tension measurements of the formulations were done to monitor fractional BAK removal.
The steady state Langmuir adsorption isotherm model and Langmuir surface equation of state were used to fit the equilibrium interfacial surface tension data are given below:
[formula] [formula] Where a least square error minimization protocol was used to fit the experimental equilibrium surface tension values and the calculated estimates using the above model. […] Benzalkonium Chloride Removal from Commercial Bimatoprost Formulation (Allegran Inc.)

[4] = Partition coefficient of BAK in pHEMA particles prepared by heat-initiated polymerization
[5] = Partition coefficient in HEMA/MAA copolymer gels of various compositions
Procedure: Gels of […] were synthesized using 2 mL monomer solution, 2.7 mL of water, 10 μL of ethylene glycol dimethacrylate as crosslinker, and 6 mg of Darocur TPO as a photoinitiator. The monomer solution had different fractions of HEMA and MAA (i.e. 60% MAA would be 1.2 mL MAA and 0.8 mL HEMA). Gels were cured under UV light in 100 micron thick molds and subsequently cut into pieces approximately 50 mg in mass. Some gels were loaded with BAK to give a 3× (or 300 ppm) initial concentration and placed into 3 mL solution (either 0.025% Bimatoprost/PBS 1× or 0.2% BAK/PBS). The concentrations in solution were measured using UV-vis spectrophotometry. Upon achieving equilibrium, the gels were placed in 3 mL blank PBS, and release was monitored by UV-vis spectrophotometry. Uptake and release equilibrium concentrations were used to calculate partition coefficients. FIGS. 28 and 29 are plots of the partition coefficient for Bimatoprost and BAK for various gel copolymer compositions.

[6] = Partition coefficient in pHEMA particles prepared using SR9035 as cross-linker; conditions: 100 mg particles in 3.5 mL solution, 9 days
Procedure: The partition coefficients of timolol, CMC and BAK in pHEMA particles prepared using SR9035 as cross-linker was measured. pHEMA particles (100 mg) were soaked in 3.5 mL of timolol, CMC and BAK solution, which concentration was 0.08 mg/mL, 0.5% and 2.4 mg/mL, respectively. After 9 days of soaking, the concentration of the drug or BAK solution was measured by using UV-Vis spectrophotometry. The drug or BAK concentration after soaking indicated the amount of drug or BAK that absorbed into the gel relative to the initial concentration. The partition coefficient of timolol and CMC in pHEMA particles is much smaller than that of BAK, and should have excellent separation efficiency.

Row | Compound | Partition coefficient [1] | partition coefficient, times smaller than that of BAK [1] | partitioning between gel and solution (in words) [5] | Partition coefficient [6] | further results
1 | C[C@@H]1C[C@H]2[C@@H]3CCC4=CC(=O)C=C[C@]4(C)[C@@]3(F)[C@@H](O)C[C@]2(C)[C@@]1(O)C(=O)CO [Dexamethasone, dexamethasone] | 33.53 ± 1.31 |  |  |  | 
2 | Benzalkonium Chloride [BAK] |  |  | strongly partitions into the gel | ~300 | adsorption time on pHEMA ([2]; compared with transit time): < 3 s; partition coefficient into pHEMA matrix ([2]; depends on BAK concentration and structure of pHEMA matrix): 100-500; maximum surface coverage Γ∞ (fit parameter) [3]: 0.003309 mol/m^2; ratio of kinetic rate constants β/α (fit parameter) [3]: 462.14 m^3/mol; Partition coefficient [4]: 200-250
3 | CCNC(=O)CCC/C=C\C[C@@H]1[C@@H](/C=C/[C@@H](O)CCc2ccccc2)[C@H](O)C[C@@H]1O [Bimatoprost] |  |  | tends to remain in solution |  | 
4 | CCN[C@H]1C[C@H](C)S(=O)(=O)c2sc(S(N)(=O)=O)cc21 [Dorzolamide, dorzolamide hydrochloride] | 7.59 ± 0.56 | roughly 15 times |  |  | 

Now from value to compound, other results behind:

Row | Partition coefficient [1] | partition coefficient, times smaller than that of BAK [1] | Compound | partitioning between gel and solution (in words) [5] | Partition coefficient [6] | further results
5 | 90.18 |  | CC(C)OC(=O)CCC/C=C\C[C@@H]1[C@@H](CC[C@@H](O)CCc2ccccc2)[C@H](O)C[C@@H]1O [Latanoprost, latanoprost] |  |  | 
6 | 6.49 | roughly 15 times | CC(C)(C)NC[C@H](O)COc1nsnc1N1CCOCC1 [Timolol, timolol maleate] |  | 5.59 ± 0.13^a | 
